Several values for one entry are separate records, joined by “and”; a condition that tells them apart may be missing. Equal values may be shown once.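 Cultured in 96-well plates, cells were exposed to test compound for 48 hours across five concentrations. Here, GI50 denotes the concentration required for 50% inhibition of growth. At the TGI there is no net growth.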
Key:
Experiment in all cases: inhibition of tumour cell growth, NCI panel, 48 h
NCI-H522 lung = tested on: NCI-H522 lung
PC-3 prostate = tested on: PC-3 prostate
KM12 colon = tested on: KM12 colon
SF-268 CNS = tested on: SF-268 CNS
COLO 205 colon = tested on: COLO 205 colon
HCT-15 colon = tested on: HCT-15 colon
HOP-62 NSCLC = tested on: HOP-62 NSCLC
UACC-62 melanoma = tested on: UACC-62 melanoma
ACHN renal = tested on: ACHN renal
NCI-H460 lung = tested on: NCI-H460 lung

Compound | GI50 (NCI-H522 lung) | TGI (NCI-H522 lung) | GI50 (PC-3 prostate) | TGI (PC-3 prostate) | GI50 (KM12 colon) | TGI (KM12 colon) | GI50 (SF-268 CNS) | TGI (SF-268 CNS) | GI50 (COLO 205 colon) | TGI (COLO 205 colon) | GI50 (HCT-15 colon) | TGI (HCT-15 colon) | GI50 (HOP-62 NSCLC) | TGI (HOP-62 NSCLC) | GI50 (UACC-62 melanoma) | TGI (UACC-62 melanoma) | GI50 (ACHN renal) | TGI (ACHN renal) | GI50 (NCI-H460 lung) | TGI (NCI-H460 lung)
O=[N+]([O-])c1ccc([I+]c2ccccc2)cc1 | 1.52 µM | 4.2 µM and 3.03 µM | 2.16 µM | 11 µM and 5.21 µM | 1.67 µM | 9.64 µM and 3.15 µM | 1.65 µM | 13.1 µM and 3.11 µM | 1.37 µM | 13.5 µM and 3.82 µM | 8.9 µM | 18.3 µM and 23.4 µM | 1.56 µM | 25.6 µM and 3.3 µM | 1.43 µM | 8.17 µM and 3.62 µM | 5.15 µM | > 31.6 µM and 18.5 µM | 1.78 µM | 11.9 µM and 3.93 µM
CCN1C(=O)N(CC)C2C1NN=c1s/c(=C\c3ccc([N+](=O)[O-])cc3)c(=O)n12 (stereo unspecified) | 0.323 µM | 6.94 µM | 0.387 µM | > 75.9 µM | 0.342 µM | > 100 µM | 0.895 µM | > 67.7 µM | 0.469 µM | 11.8 µM | 0.394 µM | > 100 µM | 0.731 µM | > 59.8 µM | 0.5 µM | > 100 µM | 0.587 µM | > 100 µM | 0.369 µM | > 100 µM
Cc1ccc2c(c1)/C(=N\N=C/c1cn(C(C)C)c3ccccc13)C(=O)N2 | 1.05 µM | > 100 µM | 0.723 µM | 45.3 µM | 5.5 µM | > 100 µM | 4.9 µM | > 100 µM | 0.324 µM | 2.08 µM | 2.12 µM | > 100 µM | 28.4 µM | > 100 µM | 2.69 µM | > 100 µM | 2.95 µM | > 100 µM | 0.833 µM | 13.1 µM
O=C(O)Cc1ccccc1 | > 1000 µM | > 2000 µM | > 1000 µM | > 2000 µM | > 1000 µM | > 2000 µM | > 1000 µM | > 2000 µM | > 1000 µM | > 2000 µM | > 1000 µM | > 1000 µM and 1710 µM | > 1000 µM | > 2000 µM | > 1000 µM | > 2000 µM | > 1000 µM | > 2000 µM | > 1000 µM | > 1000 µM and 933 µM
Cc1cc(N(CCC#N)CCC#N)ccc1N=Nc1ccc([N+](=O)[O-])cc1 |  | > 100 µM |  |  |  | > 100 µM |  | > 100 µM |  | > 100 µM |  | > 100 µM |  | > 100 µM |  | > 10 µM |  | > 100 µM |  | > 100 µM
C=C1CCC2C3(C)COC(c4cccc(Cl)c4)OC3CCC2(C)C1/C=C/C1=CCOC1=O (stereo unspecified) | 2.92 µM | > 100 µM | 3.77 µM | > 100 µM | 8.01 µM | > 100 µM | > 100 µM | > 100 µM |  |  | 6.75 µM | > 100 µM | > 100 µM | > 100 µM | 6.35 µM | > 100 µM | > 100 µM | > 100 µM | 5.15 µM | > 100 µM
CCOC(=O)C1=C(O)CSC1=Nc1ccc(N=C2SCC(O)=C2C(=O)OCC)cc1 |  | 32.3 µM |  |  |  | 44.9 µM |  | 52.4 µM |  | 32.5 µM |  | 57.7 µM |  | 65.9 µM |  | 44.2 µM |  | 67.4 µM |  | 92 µM
